Measurements: BindingDB's records for doi:10.1111/cbdd.12572 (Depaul University, 2015)

Each molecule was assayed against T1, Caspase-1 (Homo sapiens, UniProt P29466) (assay: Inhibition Assay). Conditions: pH 7.5; 25 °C.
T1 sequence (P29466 whole entry): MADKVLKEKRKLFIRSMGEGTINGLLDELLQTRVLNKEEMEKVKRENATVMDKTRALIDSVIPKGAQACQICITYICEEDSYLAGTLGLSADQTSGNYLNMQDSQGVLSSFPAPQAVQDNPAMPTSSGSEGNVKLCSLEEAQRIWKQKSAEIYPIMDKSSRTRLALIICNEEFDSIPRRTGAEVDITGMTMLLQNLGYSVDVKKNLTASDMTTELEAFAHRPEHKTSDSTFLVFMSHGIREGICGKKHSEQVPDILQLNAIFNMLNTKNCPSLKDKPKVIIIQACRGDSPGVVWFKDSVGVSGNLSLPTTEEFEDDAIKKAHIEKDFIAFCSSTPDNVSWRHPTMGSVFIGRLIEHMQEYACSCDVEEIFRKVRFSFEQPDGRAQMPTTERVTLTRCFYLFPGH
Procedure: All assays were performed at 100 µL total volume in triplicate and monitored for 60 minutes at room temperature in a 96-well plate format in HEPES Buffer (100 mM HEPES, 100 mM NaCl, 0.1% CHAPS, 10% sucrose, pH 7.5) on a BioTek Synergy H1 plate reader. Fluorescence was measured with excitation and emission wavelengths of 380 nm and 460 nm, respectively. Caspase-1 was activated with 100 µM DTT for 30 minutes and held constant at 5 nM for all assays. WEHD-AMC was used as a substrate for all assays at 10 µM unless otherwise specified and reactions were monitored immediately upon addition to caspase-1.

| SMILES | IC50 [µM] |
| --- | --- |
| CCCCCCCCCCCCCCCC(=O)OC[C@H](O)[C@H]1OC(=O)C(O)=C1O [Ascorbyl Palmitate] | 0.6 |
| Cc1cc2c(C(C)C)c(O)c(O)c(C=O)c2c(O)c1-c1c(C)cc2c(C(C)C)c(O)c(O)c(C=O)c2c1O [Tash 1] | 1.23 |
| CCCCCC#CCC#CCC#CCC#CCCCC(=O)O | > 10 |
| CCCCCCCCOC(=O)/C=C/c1ccc(O)c(O)c1 [Octyl (2E)‐3‐(3,4‐dihydroxyphenyl)prop‐2‐enoate (E6)] | 0.84 |
| CCN(CC)C(=S)SSC(=S)N(CC)CC [1,1',1'',1'''-[disulfanediylbis(carbonothioylnitrilo)]tetraethane] | 1.8 |
| O=c1c2ccccc2[se]n1-c1ccccc1 [2-Phenyl-benzo[d]isoselenazol-3-one] | 4.04 |
| Cc1c(C)c2c(c(C)c1O)CC[C@](C)(CN1CCN(c3cc(N4CCCC4)nc(N4CCCC4)n3)CC1)O2 [U83836E (B8)] | 0.167 |
| C[C@]12C=CC(=O)C=C1CC[C@@H]1C2=CC[C@]2(C)[C@@H](C(=O)CN3CCN(c4cc(N5CCCC5)nc(N5CCCC5)n4)CC3)CC[C@@H]12 [U74389G (B9)] | 0.174 |
| N#C/C(=C\c1ccc(O)c(O)c1)C(=O)OC/C=C/c1ccccc1 | 2.23 |
| CC(Cc1ccc(O)c(O)c1)C(C)Cc1ccc(O)c(O)c1 (stereo not drawn) [LOX inhibitor, N/A] | > 10 |
| CC1=CC(=O)C(C(C)C)=CC1=O [2-methyl-5-(propan-2-yl)cyclohexa-2,5-diene-1,4-dione (F8)] | 1.08 |
| CC1(C)CCC2=C(O1)c1ccccc1C(=O)C2=O [R115 (Reactive Blue 2)] | 1.69 |
| CC/C=C\C/C=C\C/C=C\C/C=C\C/C=C\C/C=C\CCC(=O)O [all-cis-docosa-4,7,10,13,16,19-hexaenoic acid] | 6.76 |
